Assay results as given in US10092570B2 (Incyte Corporation, priority 2011, dated 2018).
Counter-ions that a name gives are not always drawn.

These compounds were tested against PI3Kδ (p110δ/p85α) (Homo sapiens (Human), UniProt O00329) (assay: Example A3: PI3Kδ scintillation proximity assay). Details: scintillation proximity assay, 20 μM ATP, 4 nM PI3Kδ; read-out: PI3Kδ SPA IC50.
Type: biochemical
Method: [γ-^33P]ATP (10 mCi/mL) was purchased from Perkin-Elmer (Waltham, Mass.). […] PI3Kδ (p110δ/p85α) was purchased from Millipore (Bedford, Mass.). ATP, MgCl2, DTT, EDTA, MOPS and CHAPS were purchased from Sigma-Aldrich (St. Louis, Mo.). Wheat Germ Agglutinin (WGA) YSi SPA Scintillation Beads was purchased from GE healthcare life sciences (Piscataway, N.J.).
The kinase reaction was conducted in polystyrene 384-well matrix white plate from Thermo Fisher Scientific in a final volume of 25 μL. Inhibitors were first diluted serially in DMSO and added to the plate wells before the addition of other reaction components. The final concentration of DMSO in the assay was 0.5%. The PI3K assays were carried out at room temperature in 20 mM MOPS, pH 6.7, 10 mM MgCl2, 5 mM DTT and CHAPS 0.03%. Reactions were initiated by the addition of ATP, the final reaction mixture consisted of 20 μM PIP2, 20 μM ATP, 0.2 μCi [γ-^33P] ATP, 4 nM PI3Kδ. […] 25 mM EDTA, 400 μM ATP. The final concentration of SPA beads was 1.0 mg/mL. After the plate sealing, plates were shaken overnight at room temperature and centrifuged at 1800 rpm for 10 minutes, the radioactivity of the product was determined by scintillation counting on Topcount (Perkin-Elmer). IC50 determination was performed by fitting the curve of percent control activity versus the log of the inhibitor concentration using the GraphPad Prism 3.0 software.

Sequence of PI3Kδ (p110δ/p85α) (O00329 whole entry): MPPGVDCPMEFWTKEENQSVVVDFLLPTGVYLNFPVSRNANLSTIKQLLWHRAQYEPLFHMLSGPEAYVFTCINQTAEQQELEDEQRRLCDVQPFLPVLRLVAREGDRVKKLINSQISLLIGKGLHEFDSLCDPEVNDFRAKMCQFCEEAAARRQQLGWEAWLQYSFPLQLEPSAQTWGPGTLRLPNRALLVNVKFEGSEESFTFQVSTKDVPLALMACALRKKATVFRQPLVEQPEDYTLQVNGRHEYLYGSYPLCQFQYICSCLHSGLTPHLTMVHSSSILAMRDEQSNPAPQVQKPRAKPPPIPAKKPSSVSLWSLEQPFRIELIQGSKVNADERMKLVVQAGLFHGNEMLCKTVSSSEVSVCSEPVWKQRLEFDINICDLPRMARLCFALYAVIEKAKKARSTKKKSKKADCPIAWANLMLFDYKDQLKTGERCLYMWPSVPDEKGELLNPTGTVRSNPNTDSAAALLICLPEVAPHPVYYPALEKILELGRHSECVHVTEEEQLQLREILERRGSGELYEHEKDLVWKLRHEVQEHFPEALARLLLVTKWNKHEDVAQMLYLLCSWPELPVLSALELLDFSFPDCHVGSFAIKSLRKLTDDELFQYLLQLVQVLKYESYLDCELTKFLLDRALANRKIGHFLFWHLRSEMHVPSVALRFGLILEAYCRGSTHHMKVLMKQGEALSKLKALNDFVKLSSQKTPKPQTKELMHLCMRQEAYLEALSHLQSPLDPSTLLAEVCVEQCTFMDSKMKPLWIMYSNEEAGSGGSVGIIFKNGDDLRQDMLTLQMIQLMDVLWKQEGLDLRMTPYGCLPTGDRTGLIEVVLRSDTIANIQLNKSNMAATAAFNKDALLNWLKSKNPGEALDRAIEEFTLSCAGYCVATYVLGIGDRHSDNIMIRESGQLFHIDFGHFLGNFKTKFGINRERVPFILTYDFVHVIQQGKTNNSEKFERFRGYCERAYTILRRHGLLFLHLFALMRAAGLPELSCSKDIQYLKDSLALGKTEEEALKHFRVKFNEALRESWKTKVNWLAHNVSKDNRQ
Sequence of PI3Kδ (p110δ/p85α) (P27986 whole entry partner): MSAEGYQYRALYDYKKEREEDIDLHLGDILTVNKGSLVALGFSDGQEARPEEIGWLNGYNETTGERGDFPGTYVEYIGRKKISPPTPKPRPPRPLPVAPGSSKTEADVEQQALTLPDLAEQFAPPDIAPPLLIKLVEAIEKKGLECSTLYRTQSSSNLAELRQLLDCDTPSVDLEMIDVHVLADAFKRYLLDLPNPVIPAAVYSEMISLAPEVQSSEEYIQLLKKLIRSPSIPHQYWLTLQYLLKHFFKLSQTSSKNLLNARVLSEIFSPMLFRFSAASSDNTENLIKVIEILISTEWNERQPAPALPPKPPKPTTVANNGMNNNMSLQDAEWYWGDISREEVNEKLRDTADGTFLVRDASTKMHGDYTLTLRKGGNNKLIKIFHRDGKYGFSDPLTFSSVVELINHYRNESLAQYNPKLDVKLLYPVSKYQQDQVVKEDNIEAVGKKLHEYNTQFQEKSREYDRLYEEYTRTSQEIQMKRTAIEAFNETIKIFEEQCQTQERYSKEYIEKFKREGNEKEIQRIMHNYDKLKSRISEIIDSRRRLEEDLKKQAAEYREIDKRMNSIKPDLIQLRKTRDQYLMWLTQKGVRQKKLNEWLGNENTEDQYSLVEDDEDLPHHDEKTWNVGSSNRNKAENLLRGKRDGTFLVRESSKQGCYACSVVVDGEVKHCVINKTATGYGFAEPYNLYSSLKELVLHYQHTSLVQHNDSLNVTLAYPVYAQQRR

Row | Structure (SMILES) | IC50 [nM]
1 | CCOc1c(C(C)n2nc(C#C[C@@H](C)O)c3c(N)ncnc32)cc(Cl)c(C)c1-c1ccc(C(=O)N(C)C)nc1 (stereo partly drawn) [Example 79, 5-[3-(1-{4-Amino-3-[(3R)-3-hydroxybut-1-yn-1-yl]-1H-pyrazolo[3,4-d]pyrimidin-1-yl}ethyl)-5-chloro-2-ethoxy-6-methylphenyl]-N,N-dimethylpyridine-2-carboxamide bis(trifluoroacetate)] | < 10
2 | CCNC(=O)c1c(C)c(Cl)cc(C(C)n2nc(-c3cn[nH]c3)c3c(N)ncnc32)c1OCC (racemic) [Example 87, 3-{1-[4-Amino-3-(1H-pyrazol-4-yl)-1H-pyrazolo[3,4-d]pyrimidin-1-yl]ethyl}-5-chloro-2-ethoxy-N-ethyl-6-methylbenzamide] | < 10
3 | CCOc1c(C(C)n2nc(C)c3c(N)ncnc32)cc(Cl)c(C)c1-c1ccc(C(=O)N(C)C)nc1 (stereo not shown) [Example 14, 5-{3-[1-(4-Amino-3-methyl-1H-pyrazolo[3,4-d]pyrimidin-1-yl)ethyl]-5-chloro-2-ethoxy-6-methylphenyl}-N,N-dimethylpyridine-2-carboxamide bis(trifluoroacetate)] | < 10
4 | CCC(C)N1CC(c2c(C)c(Cl)cc(C(C)n3nc(C)c4c(N)ncnc43)c2OC)C1 (stereo not shown) [Example 8, 1-{1-[3-(1-sec-butylazetidin-3-yl)-5-chloro-2-methoxy-4-methylphenyl]ethyl}-3-methyl-1H-pyrazolo[3,4-d]pyrimidin-4-amine] | < 10
5 | CCOc1c(C(C)n2nc(C)c3c(N)ncnc32)cc(Cl)c(C#N)c1-c1ccc(C(C)(C)O)nc1 (racemic) [Example 316, 4-[1-(4-amino-3-methyl-1H-pyrazolo[3,4-d]pyrimidin-1-yl)ethyl]-6-chloro-3-ethoxy-2-[6-(1-hydroxy-1-methylethyl)pyridin-3-yl]benzonitrile] | < 10
6 | CCC(=O)N1CC(c2c(C)c(Cl)cc(C(C)n3nc(C)c4c(N)ncnc43)c2OC)C1 (stereo not shown) [Example 3, 1-{1-[5-Chloro-2-methoxy-4-methyl-3-(1-propionylazetidin-3-yl)phenyl]ethyl}-3-methyl-1H-pyrazolo[3,4-d]pyrimidin-4-amine trifluoroacetate] | < 10
7 | CNC(=O)c1cc(-c2c(C)c(Cl)cc(C(C)n3nc(C)c4c(N)ncnc43)c2OC)ccn1 (racemic) [Example 17, 4-(3-(1-(4-amino-3-methyl-1H-pyrazolo[3,4-d]pyrimidin-1-yl)ethyl)-5-chloro-2-methoxy-6-methylphenyl)-N-methylpicolinamide] | < 10
8 | CCOc1c(C(C)n2ccc(=O)c3c(N)ncnc32)cc(Cl)c(C#N)c1-c1cncc(S(C)(=O)=O)c1 (racemic) [Example 46, 4-(1-(4-amino-5-oxopyrido[2,3-d]pyrimidin-8(5H)-yl)ethyl)-6-chloro-3-ethoxy-2-(5-(methylsulfonyl)pyridin-3-yl)benzonitrile] | < 10
9 | CCOc1c(C(C)n2nc(C)c3c(N)ncnc32)cc(Cl)c(C#N)c1N1CC(OC)C1 (stereo not shown) [Example 319, 4-[1-(4-amino-3-methyl-1H-pyrazolo[3,4-d]pyrimidin-1-yl)ethyl]-6-chloro-3-ethoxy-2-(3-methoxyazetidin-1-yl)benzonitrile] | < 10
10 | COc1c(C(C)n2nc(C(F)F)c3c(N)ncnc32)cc(C#N)c(C)c1C1CN(C[C@@H](C)O)C1 (stereo partly drawn) [Example 132, 5-{1-[4-Amino-3-(difluoromethyl)-1H-pyrazolo[3,4-d]pyrimidin-1-yl]ethyl}-3-{1-[(2R)-2-hydroxypropyl]azetidin-3-yl}-4-methoxy-2-methylbenzonitrile] | < 10
11 | CCOc1c(C(C)n2nc(C)c3c(N)ncnc32)cc(Cl)c(C#N)c1-c1cncc(-c2ncco2)c1 (racemic) [Example 339, 4-[1-(4-amino-3-methyl-1H-pyrazolo[3,4-d]pyrimidin-1-yl)ethyl]-6-chloro-3-ethoxy-2-[5-(1,3-oxazol-2-yl)pyridin-3-yl]benzonitrile] | < 10
12 | CCOc1c(C(C)n2nc(I)c3c(N)ncnc32)cc(Cl)c(C)c1-c1ccc(C(=O)N(C)C)nc1 (racemic) [Example 15, 5-{3-[1-(4-Amino-3-iodo-1H-pyrazolo[3,4-d]pyrimidin-1-yl)ethyl]-5-chloro-2-ethoxy-6-methylphenyl}-N,N-dimethylpyridine-2-carboxamide] | < 10
13 | CNC(=O)[C@H](C)N1CC(c2c(C)c(C#N)cc(C(C)n3nc(C(F)F)c4c(N)ncnc43)c2OC)C1 (stereo partly drawn) [Example 134, (2S)-2-[3-(3-{1-[4-Amino-3-(difluoromethyl)-1H-pyrazolo[3,4-d]pyrimidin-1-yl]ethyl}-5-cyano-2-methoxy-6-methylphenyl)azetidin-1-yl]-N-methylpropanamide] | < 10
14 | COc1c(C(C)n2nc(C)c3c(N)ncnc32)cc(Cl)c(C#N)c1C1CN(S(=O)(=O)C(C)C)C1 (single isomer, unassigned) [Example 287, 4-[1-(4-Amino-3-methyl-1H-pyrazolo[3,4-d]pyrimidin-1-yl)ethyl]-6-chloro-2-[1-(isopropylsulfonyl)azetidin-3-yl]-3-methoxybenzonitrile] | < 10
15 | COc1c(C(C)n2nc(C)c3c(N)ncnc32)cc(Cl)c(C)c1C1CN(CC#N)C1 (single isomer, unassigned) [Example 105, (3-{3-[1-(4-Amino-3-methyl-1H-pyrazolo[3,4-d]pyrimidin-1-yl)ethyl]-5-chloro-2-methoxy-6-methylphenyl}azetidin-1-yl)acetonitrile] | < 10
16 | COc1c(C(C)n2nc(C)c3c(N)ncnc32)cc(Cl)c(C)c1C1CN(C(C)C#N)C1 (stereo not shown) [Example 106, 2-(3-{3-[1-(4-Amino-3-methyl-1H-pyrazolo[3,4-d]pyrimidin-1-yl)ethyl]-5-chloro-2-methoxy-6-methylphenyl}azetidin-1-yl)propanenitrile] | < 10

The next lines start with the values.

Row | IC50 [nM] | Structure (SMILES)
17 | < 10 | COc1c(C(C)n2nc(C)c3c(N)ncnc32)cc(Cl)c(C#N)c1C1CN(S(C)(=O)=O)C1 (single isomer, unassigned) [Example 285, 4-[1-(4-Amino-3-methyl-1H-pyrazolo[3,4-d]pyrimidin-1-yl)ethyl]-6-chloro-3-methoxy-2-[1-(methylsulfonyl)azetidin-3-yl]benzonitrile]
18 | < 10 | COc1c([C@H](C)n2nc(C)c3c(N)ncnc32)cc(Cl)c(C#N)c1C1CN(C[C@@H](C)O)C1 [Example 362, 4-((S)-1-(4-amino-3-methyl-1H-pyrazolo[3,4-d]pyrimidin-1-yl)ethyl)-6-chloro-2-(1-((R)-2-hydroxypropyl)azetidin-3-yl)-3-methoxybenzonitrile]
19 | < 10 | CCOc1c(C(C)n2nc(-c3cnn(CCO)c3)c3c(N)ncnc32)cc(Cl)c(C)c1-c1ccc(C(=O)N(C)C)nc1 (stereo not shown) [Example 52, 5-[3-(1-{4-amino-3-[1-(2-hydroxyethyl)-1H-pyrazol-4-yl]-1H-pyrazolo[3,4-d]pyrimidin-1-yl}ethyl)-5-chloro-2-ethoxy-6-methylphenyl]-N,N-dimethylpyridine-2-carboxamide bis(trifluoroacetate)]
20 | < 10 | CCOc1c(C(C)n2nc(C(F)F)c3c(N)ncnc32)cc(Cl)c(C)c1-c1ccc(C(=O)N(C)C)nc1 (racemic) [Example 82, 5-(3-{1-[4-Amino-3-(difluoromethyl)-1H-pyrazolo[3,4-d]pyrimidin-1-yl]ethyl}-5-chloro-2-ethoxy-6-methylphenyl)-N,N-dimethylpyridine-2-carboxamide bis(trifluoroacetate)]
21 | < 10 | CCOc1c(C(C)n2nc(C)c3c(N)ncnc32)cc(Cl)c(C)c1C1CN(C(=O)[C@H](C)O)C1 (stereo partly drawn) [Example 99, (2S)-1-(3-{3-[1-(4-Amino-3-methyl-1H-pyrazolo[3,4-d]pyrimidin-1-yl)ethyl]-5-chloro-2-ethoxy-6-methylphenyl}azetidin-1-yl)-1-oxopropan-2-ol trifluoroacetate]
22 | < 10 | CCOc1c(C(C)n2nc(C)c3c(N)ncnc32)cc(Cl)c(C#N)c1C1CN(C(=O)C(C)(C)O)C1 (single isomer, unassigned) [Example 247, 4-[1-(4-Amino-3-methyl-1H-pyrazolo[3,4-d]pyrimidin-1-yl)ethyl]-6-chloro-3-ethoxy-2-[1-(2-hydroxy-2-methylpropanoyl)azetidin-3-yl]benzonitrile]
23 | < 10 | COc1c(C(C)n2nc(C)c3c(N)ncnc32)cc(Cl)c(C)c1C1CN([C@@H](C)C(=O)N(C)C)C1 (stereo partly drawn) [Example 160, (2S)-2-(3-{3-[1-(4-Amino-3-methyl-1H-pyrazolo[3,4-d]pyrimidin-1-yl)ethyl]-5-chloro-2-methoxy-6-methylphenyl}azetidin-1-yl)-N,N-dimethylpropanamide]
24 | < 10 | COc1c(C(C)n2nc(C)c3c(N)ncnc32)cc(Cl)c(C#N)c1C1CN(C(N)=O)C1 (single isomer, unassigned) [Example 293, 3-{3-[1-(4-Amino-3-methyl-1H-pyrazolo[3,4-d]pyrimidin-1-yl)ethyl]-5-chloro-6-cyano-2-methoxyphenyl}azetidine-1-carboxamide]
25 | < 10 | COc1c(C(C)n2nc(C)c3c(N)ncnc32)cc(Cl)c(C#N)c1C1CN(C2COC2)C1 (single isomer, unassigned) [Example 274, 4-[1-(4-Amino-3-methyl-1H-pyrazolo[3,4-d]pyrimidin-1-yl)ethyl]-6-chloro-3-methoxy-2-(1-oxetan-3-ylazetidin-3-yl)benzonitrile]
